Experimental data published in patent US20240318160A1 (Wisconsin Alumni Research Foundation, priority 2023, published 2024).

Assays:
Assay type in all cases: biochemical
[1] = tested on: Sorghum bicolor SbPAL variant F135H (SbPAL^F135H); assay: TAL and PAL enzyme kinetics; settings: PAL assay (L-Phe), pH 8.5, 30° C.
Procedure: (§1) A mixture containing 100 mM Tris-HCl (pH 8.5), 1% glycerol, and purified enzyme in a total volume of 50 μl was preincubated for 3 min at 30° C. […] The reactions were terminated by addition of 6N acetic acid (10 μl).
(§2) The kinetic parameters of the recombinant enzymes were determined using HPLC. Reaction mixtures containing 100 mM Tris-HCl (pH 8.5), 1% glycerol, and purified enzyme (0.15 μg for PAL assay and 1 μg for TAL assay) in a 50 μl total volume were preincubated for 3 min at 30° C. […] After 10 min and 20 min incubations for PAL and TAL assay, respectively, at 30° C., the reaction was terminated by addition of 6N acetic acid (10 μl). […] The products were quantified using calibration curves generated using authentic standards. Non-linear hyperbolic regression analyses were conducted using the Excel Solver tool to calculate Km and Vmax values.

[2] = tested on: Ecdeiocolea monostachya EmoPTAL, wild type; assay: TAL and PAL enzyme kinetics; settings: PAL assay (L-Phe), pH 8.5, 30° C.
Procedure: as §1, §2

[3] = tested on: Sorghum bicolor SbPAL, wild type; assay: TAL and PAL enzyme kinetics; settings: PAL assay (L-Phe), pH 8.5, 30° C.
Procedure: as §1, §2

[4] = tested on: Streptochaeta angustifolia SaPTAL-a variant H118F (SaPTAL-a^H118F); assay: TAL and PAL enzyme kinetics; settings: PAL assay (L-Phe), pH 8.5, 30° C.
Procedure: as §1, §2

[5] = tested on: Joinvillea ascendens JaPAL^F140H_MUT8 variant L138I; assay: TAL and PAL enzyme kinetics; settings: PAL assay (L-Phe), pH 8.5, 30° C.
Procedure: (§3) To determine which of the 8 circle residues are essential in the conversion of PAL enzymes to PTAL enzymes (FIG. 3C), we mutated, one by one, each one of these 8 residues back to the PAL type in JaPAL^F140H_MUT8 and determined their effects on catalytic efficiency.
as §1, §2

[6] = tested on: Joinvillea ascendens JaPAL^F140H_MUT8 variant G121A; assay: TAL and PAL enzyme kinetics; settings: PAL assay (L-Phe), pH 8.5, 30° C.
Procedure: as §3, §1, §2

[7] = tested on: Joinvillea ascendens JaPAL^F140H_MUT8 variant A448S; assay: TAL and PAL enzyme kinetics; settings: PAL assay (L-Phe), pH 8.5, 30° C.
Procedure: as §3, §1, §2

[8] = tested on: Joinvillea ascendens JaPAL^F140H_MUT8 variant S267A; assay: TAL and PAL enzyme kinetics; settings: PAL assay (L-Phe), pH 8.5, 30° C.
Procedure: as §3, §1, §2

[9] = tested on: Joinvillea ascendens JaPAL^F140H_MUT8 variant T444P; assay: TAL and PAL enzyme kinetics; settings: PAL assay (L-Phe), pH 8.5, 30° C.
Procedure: as §3, §1, §2

[10] = tested on: Joinvillea ascendens JaPAL^F140H_MUT8 variant V500I; assay: TAL and PAL enzyme kinetics; settings: PAL assay (L-Phe), pH 8.5, 30° C.
Procedure: as §3, §1, §2

[11] = tested on: Joinvillea ascendens JaPAL^F140H_MUT8 variant I122S (in Table 3; I112S in text); assay: TAL and PAL enzyme kinetics; settings: PAL assay (L-Phe), pH 8.5, 30° C.
Procedure: as §3, §1, §2

[12] = tested on: Joinvillea ascendens JaPAL^F140H_MUT8 variant I102V; assay: TAL and PAL enzyme kinetics; settings: PAL assay (L-Phe), pH 8.5, 30° C.
Procedure: as §3, §1, §2

[13] = tested on: Joinvillea ascendens JaPAL (SEQ ID NO: 28) variant JaPAL^F140H_MUT16 (F140H plus PTAL-type residues at 70, 102, 110, 112, 121, 129, 135, 138, 267, 271, 279 …); assay: TAL and PAL enzyme kinetics; settings: PAL assay (L-Phe), pH 8.5, 30° C.
Procedure: (§4) To investigate the potential role of these residues in TAL activity, we generated two JaPAL mutant enzymes, one with PTAL-type substitutions in the 8 circle residues and the other with PTAL-type substitutions in both the circle and triangle residues (Table 4) in addition to the F140H mutation (JaPAL^F140H_MUT8 and JaPAL^F140H_MUT16, respectively).
as §1, §2

[14] = tested on: Joinvillea ascendens JaPAL (SEQ ID NO: 28) variant JaPAL^F140H_MUT8 (F140H plus PTAL-type residues at 102, 112, 121, 138, 267, 444, 448, 500); assay: TAL and PAL enzyme kinetics
Procedure: as §4, §1, §2

[15] = tested on: PTAL^H140F mutants (SbPTAL^H123F, BdPTAL^H123F, SaPTAL-a^H118F, SaPTAL-b^H126F, EmoPTAL^H127F, JaPTAL^H125F); assay: TAL and PAL enzyme kinetics, group of enzymes; settings: on average
Description: To experimentally test the role of His 140 in the acquisition of TAL activity, we next conducted site-directed mutagenesis on the PAL and PTAL enzymes of grasses and non-grass graminids characterized above and analyzed their effects on TAL activity. For the PAL enzymes, the residue corresponding to Phe 140 was converted to His to generate JaPAL^F140H EmoPAL^F134H, BdPAL^F137H, and SbPAL^F135H. […] For the PTAL enzymes, the residue corresponding to His 140 was converted to Phe to generate SbPTAL^H123F, BdPTAL^H123F, SaPTAL-a^H118F, SaPTAL-b^H126F, EmoPTAL^H127F, and JaPTAL^H125F. […] Thus, unlike in the bacterial TAL enzyme (Watts et al., 2006), other residues besides the His 140 are likely important for the acquisition of strong TAL activity in the PTAL enzymes of grasses and closely-related non-grass graminids.
The kinetic parameters of the recombinant enzymes were determined using HPLC. Reaction mixtures containing 100 mM Tris-HCl (pH 8.5), 1% glycerol, and purified enzyme (0.15 μg for PAL assay and 1 μg for TAL assay) in a 50 μl total volume were preincubated for 3 min at 30° C. PAL and TAL reactions were started by addition of 50 μl substrate solution prepared with 0-4 mM L-Phe and 0-2 mM L-Tyr. After 10 min and 20 min incubations for PAL and TAL assay, respectively, at 30° C., the reaction was terminated by addition of 6N acetic acid (10 μl). […] The products were quantified using calibration curves generated using authentic standards. Non-linear hyperbolic regression analyses were conducted using the Excel Solver tool to calculate Km and Vmax values.

[16] = PAL assay (L-Phe), pH 8.5, 30° C.

N[C@@H](Cc1ccccc1)C(=O)O [L-Phe, phenylalanine] gave a kcat/Km [1] of 0.84 ± 0.02 s⁻¹ mM⁻¹, a Km [2] of 64.1 ± 3.1 µM and a kcat [2] of 0.48 ± 0.00 s⁻¹. For the same compound, the kcat/Km [2] was 7.54 ± 0.39 s⁻¹ mM⁻¹, the Km [3] was 43.9 ± 2.7 µM and the kcat [3] was 0.97 ± 0.02 s⁻¹. The kcat/Km [3] was 22.05 ± 1.08 s⁻¹ mM⁻¹, the Km [4] was 6 ± 0.8 µM and the kcat [4] was 0.20 ± 0.00 s⁻¹. For the same compound, the kcat/Km [4] was 33.60 ± 5.10 s⁻¹ mM⁻¹, the Km [5] was 74.3 ± 1.1 µM and the kcat [5] was 0.66 ± 0.01 s⁻¹. It also gave a kcat/Km [5] of 8.86 ± 0.01 s⁻¹ mM⁻¹, a Km [6] of 58.1 ± 3.4 µM and a kcat [6] of 0.57 ± 0.02 s⁻¹. For the same compound, the kcat/Km [6] was 9.88 ± 0.31 s⁻¹ mM⁻¹, the Km [7] was 168 ± 11.3 µM and the kcat [7] was 0.80 ± 0.03 s⁻¹. It also gave a kcat/Km [7] of 4.79 ± 0.43 s⁻¹ mM⁻¹, a Km [8] of 317 ± 6.6 µM and a kcat [8] of 0.85 ± 0.04 s⁻¹. The kcat/Km [8] was 2.67 ± 0.06 s⁻¹ mM⁻¹, the Km [9] was 192 ± 3.6 µM and the kcat [9] was 0.90 ± 0.05 s⁻¹. The kcat/Km [9] was 4.70 ± 0.22 s⁻¹ mM⁻¹, the Km [10] was 151 ± 3.7 µM and the kcat [10] was 0.82 ± 0.02 s⁻¹. For the same compound, the kcat/Km [10] was 5.45 ± 0.14 s⁻¹ mM⁻¹, the Km [11] was 2.29 ± 0.344 mM and the kcat [11] was 0.29 ± 0.04 s⁻¹. For the same compound, the kcat/Km [11] was 0.31 ± 0.00 s⁻¹ mM⁻¹, the Km [12] was 232 ± 3.5 µM and the kcat [12] was 0.74 ± 0.01 s⁻¹. For the same compound, the kcat/Km [12] was 3.19 ± 0.08 s⁻¹ mM⁻¹, the Km [13] was 455 ± 4.6 µM and the kcat [13] was 0.46 ± 0.01 s⁻¹. For the same compound, the kcat/Km [13] was 1.01 ± 0.0 s⁻¹ mM⁻¹, the “Km for Phe relative to wild-type JaPTAL” value ([14]; PAL activity, higher than JaPTAL) was 2 fold and the Km [14, 16] was 141 ± 6.3 µM. For the same compound, the kcat [14, 16] was 0.60 ± 0.01 s⁻¹, the kcat/Km [14, 16] was 4.25 ± 0.22 s⁻¹ mM⁻¹ and the “kcat relative to wild type” value ([15]; PAL activity (Phe)) was 0.25 fold. The “Km toward Phe relative to corresponding wild-type enzymes” value ([15]; PAL activity) was 0.04 fold.
